Measurements reported in ChEMBL document CHEMBL1152505, “Enaminones 10. Molecular modeling aspects of the 5-methylcyclohexenone derivatives” (Bioorg Med Chem, 2009).

Key:
Rattus norvegicus [1] = species: Rattus norvegicus; test: Anticonvulsant activity in rat assessed as inhibition of maximal electroshock-induced seizures; type: functional
[2] = Toxicity in rat; type: organism-based; details: in vivo
Rattus norvegicus [3] = species: Rattus norvegicus; test: Protective index, ratio of TD50 for rat to ED50 for maximal electroshock-induced rat seizure model; type: functional
Rattus norvegicus [4] = species: Rattus norvegicus; test: Anticonvulsant activity against maximal electroshock-induced seizures in rat assessed as time to peak effect; type: functional
Mus musculus [5] = species: Mus musculus; test: Anticonvulsant activity in mouse assessed as inhibition of maximal electroshock-induced seizures; type: functional
[6] = Toxicity in mouse; type: organism-based; details: in vivo
Mus musculus [7] = species: Mus musculus; test: Protective index, ratio of TD50 for mouse to ED50 for maximal electroshock-induced mouse seizure model; type: functional
Mus musculus [8] = species: Mus musculus; test: Anticonvulsant activity against maximal electroshock-induced seizures in mouse assessed as time to peak effect; type: functional

| Compound | ED50 (Rattus norvegicus [1]) | TD50 [2] | PI (Rattus norvegicus [3]) | Time (Rattus norvegicus [4]) | ED50 (Mus musculus [5]) | TD50 [6] | PI (Mus musculus [7]) | Time (Mus musculus [8]) |
| --- | --- | --- | --- | --- | --- | --- | --- | --- |
| CC1CC(=O)C=C(Nc2ccc([N+](=O)[O-])cc2)C1 (stereo unspecified) | 18.4 mg/kg | > 500 mg/kg | >27.4 | 4 h | – | – | – | – |
| CC1CC(=O)C=C(Nc2ccc(Cl)cc2)C1 (stereo unspecified) | 14.7 mg/kg | > 186 mg/kg | >83.3 | 1 h | 16.7 mg/kg | 111 mg/kg | 6.6 | 0.25 h |
| CC1CC(=O)C=C(Nc2ccc(Br)cc2)C1 (stereo unspecified) | 7.6 mg/kg | > 500 mg/kg | >65.8 | 0.5 h | – | – | – | – |
| CC1CC(=O)C=C(Nc2ccc(OC(F)(F)F)cc2)C1 (stereo unspecified) | 6.5 mg/kg | > 400 mg/kg | >62 | 0.5 h | – | – | – | – |
| CC1CC(=O)C=C(Nc2ccc(C(F)(F)F)cc2)C1 (stereo unspecified) | 10.3 mg/kg | > 500 mg/kg | >48.4 | 1 h | – | – | – | – |
| COc1cccc(NC2=CC(=O)CC(C)C2)c1 (stereo unspecified) | 39.4 mg/kg | > 500 mg/kg | >12.7 | 0.5 h | – | – | – | – |
| CC1CC(=O)C=C(Nc2ccc(I)cc2)C1 (stereo unspecified) | 17.6 mg/kg | > 500 mg/kg | >28.3 | 2 h | 77 mg/kg | 344 mg/kg | 4.5 | 0.25 h |
